According to ChEMBL document CHEMBL5104219, “Pyrazolidine Carboxamide Analogs as Selective Agonists of the Cannabinoid 2 Receptor” (ACS Med Chem Lett, 2022):

How the values were obtained:
Type in all cases: functional, cell-based
[1] = biological target: T1, Cannabinoid receptor 2 (Homo sapiens, UniProt P34972); assay: Agonist activity at human CB2 receptor expressed in CHO cells assessed as inhibition of accumulation of forskolin-stimulated cAMP level by measuring maximum activation incubated for 35 mins by chemiluminescence based assay relative to control; settings: filed as agonist
[2] = biological target: T1, Cannabinoid receptor 2; assay: Agonist activity at human CB2 receptor expressed in PathHunter CHO-K1 CNR2 beta-arrestin cells assessed as beta-arrestin recruitment incubated for 3 hrs by plate reader analysis
[3] = biological target: T1, Cannabinoid receptor 2; assay: Agonist activity at human CB2 receptor expressed in CHO cells assessed as inhibition of accumulation of forskolin-stimulated cAMP level incubated for 35 mins by chemiluminescence based assay

T1 sequence (P34972 whole entry): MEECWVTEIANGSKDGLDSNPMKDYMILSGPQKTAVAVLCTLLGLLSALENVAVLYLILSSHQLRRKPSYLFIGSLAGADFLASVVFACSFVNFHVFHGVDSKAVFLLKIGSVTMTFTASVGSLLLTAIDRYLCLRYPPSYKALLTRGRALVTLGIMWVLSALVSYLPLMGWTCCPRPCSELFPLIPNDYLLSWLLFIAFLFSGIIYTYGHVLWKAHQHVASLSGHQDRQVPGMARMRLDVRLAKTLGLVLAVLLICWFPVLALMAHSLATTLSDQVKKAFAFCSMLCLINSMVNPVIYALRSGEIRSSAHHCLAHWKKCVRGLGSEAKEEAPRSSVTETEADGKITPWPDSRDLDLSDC

| Structure (SMILES) | Emax [1] | EC50 [2] | EC50 [3] |
| --- | --- | --- | --- |
| CC(C)(C)c1cc(NC(=O)N2CCCN2c2ccc(C(F)(F)F)cc2)on1 | 114% | > 1000 nM | – |
| Cc1nc(N2CCN(C)CC2)c2nc(-c3ccccc3Cl)n(C3CCOCC3)c2n1 | 52.6% | – | – |
| CC(C)(CO)c1cc(NC(=O)N2CCCN2c2ccc(C(F)(F)F)cc2)on1 | 99.7% | 167 nM | 42.7 nM |
